# Legend:
# [1] = molecular target: E. coli LpxC enzyme (Escherichia coli, UniProt P0A725); settings: cited from earlier work
# [2] = system: EnvA1 mutant protein (LpxC, His 19 replaced by Serine); settings: His 19 replaced by a Serine; cited from earlier work
# [3] = molecular target: LpxC from P. aeruginosa (Pseudomonas aeruginosa, UniProt P47205); settings: cited from earlier work
# [4] = system: E. coli JBK-1 carrying lpxC from E. coli; experiment: Growth at 42° C. of E. coli JBK-1 carrying the lpxC copy from E. coli; type: cell-based; settings: data not shown
# Description: (§1) Growth curves. Bacterial cultures were prepared by diluting stationary phase overnight cultures to an OD600 of 0.1 in 5 ml of LB. […] The cultures were incubated with shaking and 0.8 ml was taken for OD600 readings over the course of the experiment. DH5α, PA01, and PA0200 (Schweizer, H. P. 1998. Intrinsic resistance to inhibitors of fatty acid biosynthesis in Pseudomonas aeruginosa is due to efflux: application of a novel technique for generation of unmarked chromosomal mutations for the study of efflux systems. Antimicrob. Agents Chemother. 42: 394-398) were all grown at 37° C. In the cases where temperature sensitive JBK strains were being assayed, the cultures were grown at 42° C. for both the overnight and the time course cultures.
# (§2) The E. coli strain JBK-1/pKD6 contains the chromosomal lpxC gene disrupted with a kan element and a wild type copy of E. coli lpxC on the temperature-sensitive replicon pKD6. The strain was constructed as described by Sorensen et al., 1996. Since lpxC is essential for growth, this strain is not viable at 42° C. because the functional copy is on the temperature sensitive replicon.
# [5] = system: P. aeruginosa PAO 200 (MexAB-OprM efflux mutant); experiment: Growth curves with inhibitor, efflux pump mutant; type: cell-based; settings: FIG. 4
# Source text: L-161, 240 is a substrate for the major drug efflux pump of P. aeruginosa. […] However the only one that is constitutively expressed to a high degree in the wild type strains is MexAB-OprM (Kohler, T., M. Michea-Hamzehpour, and U. Henze. 1997. Characterization of MexE-MexF-OprN, a positively regulated multidrug efflux system of Pseudomonas aeruginosa. Mol. Microbiol. 23: 345-354). Therefore, mutants of this efflux system can be used to evaluate the consequences of diminished efflux pump activity. These mutants would be expected to be highly sensitive to a number of antibiotics.
# [6] = system: 'promoter swapped' P. aeruginosa lpxC mutants; experiment: MIC determinations for 'promoter swapped' mutants; type: cell-based
# Description: MIC determinations for ‘promoter swapped’ mutants. Single colonies of DH5α, PA01 and each promoter swap strain were picked and grown in LB at 37° C. with shaking for approximately 4 hours. Assuming that an OD600 reading of 1.0 is equivalent to 10^9 cells/ml, dilutions were made of all cultures to 5×10^5 cells/ml. 200 μl of each diluted culture was added to each well where a two-fold serial dilution of inhibitor had been placed. The 96-well plates were incubated at 37° C. overnight and their OD600 determined using the Spectramax Plus (Molecular Devices) plate reader.
# To confirm the effect of the arabinose-sensitive promoter in regulating the lpxC expression in the swapped mutants, MIC determinations were performed as above, except that arabinose was added to induce expression of the chromosomal locus and override the effects of the plasmid borne lpxC. In this case the stationary-phase overnight bacterial culture was diluted to 5×10^5 cells/ml in LB containing Arabinose to a final concentration of 0.2% (a 20% stock made up in water).
# Using the ‘promoter swap’ technique as described in the methods, it was possible to replace expression from the wild type chromosomal copy of P. aeruginosa lpxC, with expression solely from a plasmid borne copy. […]
# [7] = system: P. aeruginosa PA01; experiment: Growth curves with inhibitor, P. aeruginosa wild type; type: cell-based
# Description: (§3) Growth curves. Bacterial cultures were prepared by diluting stationary phase overnight cultures to an OD600 of 0.1 in 5 ml of LB. The inhibitor, L-161,240, was resuspended in DMSO to a final concentration of 10 mg/ml and added to the bacterial cultures to a final concentration of 50 μg/ml or 10 μg/ml. In the samples without inhibitor, DMSO was added to keep the final concentration of DMSO equivalent between samples. The cultures were incubated with shaking and 0.8 ml was taken for OD600 readings over the course of the experiment.
# [8] = system: E. coli JBK-1 carrying lpxC from P. aeruginosa
# Description: as §1, §2
# [9] = system: P. aeruginosa; settings: cited from earlier work
# [10] = system: E. coli; settings: cited from earlier work
# [11] = system: E. coli; settings: lethal intraperitoneal dose of E. coli; cited from earlier work
# [12] = system: P. aeruginosa PA01
# Description: Polymixin B nonapeptide (Sigma) was prepared as a suspension in DMSO at 3 mg/ml final concentration. Erythromycin and Tetracycline were resuspended in DMSO to a final concentration of 250 mg/ml and 125 mg/ml, respectively. L-161,240 was prepared as above in DMSO to a final concentration of 10 mg/ml. These DMSO antibiotic solutions were individually added to LB to the appropriate final concentration and mixed. Polymixin B nonapeptide was then added to the appropriate samples and mixed. DMSO was added to each sample to keep the final concentration of DMSO equivalent between samples. A stationary phase overnight culture of PA01 was added to each sample to bring the final concentration to 0.1 OD600. Samples were removed for OD600 determinations every 1-2 hours for 6.5 hours and the data from these time points were plotted.
# In order to determine the effect of outer membrane exclusion of L-161,240, we exposed P. aeruginosa to PMBN in combination with L-161,240, and with other lipophilic antibiotics as positive controls.
# [13] = system: E. coli DH5α; experiment: Growth curves with inhibitor, E. coli; type: cell-based
# Description: as §3
# LpxC from P. aeruginosa, sequence (P47205 whole entry): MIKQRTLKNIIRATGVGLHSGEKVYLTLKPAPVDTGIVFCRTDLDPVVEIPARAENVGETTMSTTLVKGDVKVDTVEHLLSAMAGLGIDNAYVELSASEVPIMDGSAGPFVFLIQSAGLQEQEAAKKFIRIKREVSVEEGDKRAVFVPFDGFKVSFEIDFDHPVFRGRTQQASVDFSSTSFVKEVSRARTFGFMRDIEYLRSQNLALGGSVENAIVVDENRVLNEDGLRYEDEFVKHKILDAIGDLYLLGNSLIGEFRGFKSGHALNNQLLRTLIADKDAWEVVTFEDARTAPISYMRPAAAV
# E. coli LpxC enzyme, sequence (P0A725 whole entry): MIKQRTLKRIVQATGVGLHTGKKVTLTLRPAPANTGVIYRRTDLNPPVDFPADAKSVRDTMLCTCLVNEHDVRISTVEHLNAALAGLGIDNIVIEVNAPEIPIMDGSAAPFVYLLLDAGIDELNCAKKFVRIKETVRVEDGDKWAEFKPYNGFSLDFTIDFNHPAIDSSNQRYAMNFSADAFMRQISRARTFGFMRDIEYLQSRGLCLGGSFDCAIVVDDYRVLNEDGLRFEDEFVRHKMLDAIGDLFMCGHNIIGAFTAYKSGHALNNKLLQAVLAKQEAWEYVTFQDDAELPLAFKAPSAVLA
smiles,measurement,setting,value
O=C(O)CN(CCN(CC(=O)O)CC(=O)O)CC(=O)O [EDTA],sensitivity of E. coli LpxC enzyme to EDTA,[1],not sensitive
same,sensitivity of envA1 mutant LpxC to EDTA,[2],sensitive
same,EDTA concentration significantly inhibiting P. aeruginosa LpxC enzyme,[3],≤ 2 µM
"CCCc1cc(C2=N[C@@H](C(=O)NO)CO2)cc(OC)c1OC [L-161,240]",sensitivity of JBK-1 carrying E. coli lpxC to killing,[4],still sensitive to killing by a slightly higher concentration
same,sensitivity of efflux mutant PAO 200 compared with wild type,[5],not more sensitive
same,sensitivity of all promoter swap transformants with chromosomal lpxC induced,"[6]; LB containing 0.2% arabinose, vector with E. coli or P. aeruginosa lpxC",resistant to killing
same,sensitivity of P. aeruginosa expressing only E. coli LpxC versus wild type / P. aeruginosa enzyme,"[6]; promoter swap, native lpxC shut off, plasmid-borne E. coli lpxC, no arabinose",much more sensitive
same,inhibition of LpxC from P. aeruginosa,[3],"only at very high concentrations, and even then it did so poorly"
same,prevention of growth of P. aeruginosa,[7],completely ineffective
same,inhibitor concentration to which JBK-1 carrying P. aeruginosa lpxC is resistant,"[8]; 42° C., data not shown",> 50 µg/mL
same,resistance level relative to the MIC of the wild type organisms,[8]; JBK-1 carrying P. aeruginosa lpxC,about 50 times
same,effect on bacterial growth of P. aeruginosa,[9],no effect on bacterial growth
same,minimal inhibitory concentration against E. coli,[10],about 1 microgram per milliliter
same,outcome in mice infected with lethal dose of E. coli,[11],cured
same,sensitivity of P. aeruginosa in combination with PMBN,[12],remained unchanged
same,prevention of growth of E. coli,[13],effective in preventing growth
CN(C)[C@@H]1C(O)=C(C(N)=O)C(=O)[C@@]2(O)C(O)=C3C(=O)c4c(O)cccc4[C@@](C)(O)[C@H]3C[C@@H]12 [tetracycline],lowering of MIC for P. aeruginosa by PMBN,[12],more than 16 fold

# Source: patent US7629141B2, “Essential and important genes of Pseudomonas aeruginosa and the use thereof to design or identify antibacterial agents” (priority 2001, dated 2009)
